Data as given in PubChem BioAssay (NCI).
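Values below derive from 48-hour exposures of cells grown in 96-well plates, with endpoints linearly interpolated between the two concentrations bracketing the appropriate inhibition level. TGI: concentration producing complete growth inhibition.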

How the values were obtained:
Assay in all cases: NCI tumour cell line growth inhibition, 48 h
EKVX NSCLC = tested on: EKVX NSCLC
SK-MEL-5 melanoma = tested on: SK-MEL-5 melanoma
SF-295 CNS = tested on: SF-295 CNS
MCF7 breast = tested on: MCF7 breast
DU-145 prostate = tested on: DU-145 prostate
SNB-75 CNS = tested on: SNB-75 CNS
MDA-N = tested on: MDA-N
HCC-2998 colon = tested on: HCC-2998 colon
K-562 leukemia = tested on: K-562 leukemia
CCRF-CEM leukemia = tested on: CCRF-CEM leukemia
OVCAR-3 ovarian = tested on: OVCAR-3 ovarian
PC-3 prostate = tested on: PC-3 prostate
M14 melanoma = tested on: M14 melanoma
LOX IMVI melanoma = tested on: LOX IMVI melanoma
HCT-15 colon = tested on: HCT-15 colon
RPMI-8226 leukemia = tested on: RPMI-8226 leukemia
HL-60(TB) leukemia = tested on: HL-60(TB) leukemia
MOLT-4 leukemia = tested on: MOLT-4 leukemia
NCI-H522 lung = tested on: NCI-H522 lung
COLO 205 colon = tested on: COLO 205 colon
RXF 393 renal = tested on: RXF 393 renal
T-47D breast = tested on: T-47D breast
UO-31 renal = tested on: UO-31 renal
MDA-MB-231 breast = tested on: MDA-MB-231 breast
HS 578T breast = tested on: HS 578T breast
IGROV1 ovarian = tested on: IGROV1 ovarian
MDA-MB-435 = tested on: MDA-MB-435
SK-MEL-2 melanoma = tested on: SK-MEL-2 melanoma
SW-620 colon = tested on: SW-620 colon
UACC-62 melanoma = tested on: UACC-62 melanoma
NCI-H460 lung = tested on: NCI-H460 lung
NCI-H226 lung = tested on: NCI-H226 lung
U251 CNS = tested on: U251 CNS
KM12 colon = tested on: KM12 colon
NCI/ADR-RES ovarian = tested on: NCI/ADR-RES ovarian
SR leukemia = tested on: SR leukemia
HT29 colon = tested on: HT29 colon
SK-MEL-28 melanoma = tested on: SK-MEL-28 melanoma
NCI-H23 lung = tested on: NCI-H23 lung
OVCAR-4 ovarian = tested on: OVCAR-4 ovarian
SF-539 CNS = tested on: SF-539 CNS
SN12C renal = tested on: SN12C renal
HOP-62 NSCLC = tested on: HOP-62 NSCLC
ACHN renal = tested on: ACHN renal
CAKI-1 renal = tested on: CAKI-1 renal
SF-268 CNS = tested on: SF-268 CNS
A549 NSCLC = tested on: A549 NSCLC
HCT-116 colon = tested on: HCT-116 colon
OVCAR-5 ovarian = tested on: OVCAR-5 ovarian
SK-OV-3 ovarian = tested on: SK-OV-3 ovarian
A498 renal = tested on: A498 renal
SNB-19 CNS = tested on: SNB-19 CNS
UACC-257 melanoma = tested on: UACC-257 melanoma
OVCAR-8 ovarian = tested on: OVCAR-8 ovarian
786-0 renal = tested on: 786-0 renal
MALME-3M melanoma = tested on: MALME-3M melanoma
TK-10 renal = tested on: TK-10 renal
BT-549 breast = tested on: BT-549 breast
HOP-92 NSCLC = tested on: HOP-92 NSCLC

Work on `Cc1nc2ccc(Cl)cc2c2c1CCN2c1ccc(F)cc1` yielded a TGI (EKVX NSCLC) greater than 100 µM, a TGI (SK-MEL-5 melanoma) of 21.6 µM and a TGI (SF-295 CNS) greater than 100 µM. It also gave a TGI (MCF7 breast) of 59.1 µM, a TGI (DU-145 prostate) greater than 100 µM and a TGI (SNB-75 CNS) of 9.13 µM. For the same compound, the TGI (MDA-N) was greater than 100 µM, the TGI (HCC-2998 colon) was greater than 100 µM and the TGI (K-562 leukemia) was greater than 100 µM. The TGI (CCRF-CEM leukemia) was greater than 100 µM, the TGI (OVCAR-3 ovarian) was greater than 100 µM and the TGI (PC-3 prostate) was greater than 100 µM. It also gave a TGI (M14 melanoma) of 51.7 µM, a TGI (LOX IMVI melanoma) of 78.1 µM and a TGI (HCT-15 colon) greater than 100 µM. The TGI (RPMI-8226 leukemia) was 65.1 µM, the TGI (HL-60(TB) leukemia) was 35.3 µM and the TGI (MOLT-4 leukemia) was greater than 100 µM. For the same compound, the TGI (NCI-H522 lung) was greater than 100 µM, the TGI (COLO 205 colon) was 56.5 µM and the TGI (RXF 393 renal) was 93.3 µM. It also gave a TGI (T-47D breast) greater than 100 µM, a TGI (UO-31 renal) greater than 100 µM and a TGI (MDA-MB-231 breast) of 81.3 µM. The TGI (HS 578T breast) was greater than 100 µM, the TGI (IGROV1 ovarian) was 72.7 µM and the TGI (MDA-MB-435) was 63.6 µM. The TGI (SK-MEL-2 melanoma) was greater than 100 µM, the TGI (SW-620 colon) was greater than 100 µM and the TGI (UACC-62 melanoma) was 87.4 µM. It also gave a TGI (NCI-H460 lung) greater than 100 µM, a TGI (NCI-H226 lung) of 88.8 µM and a TGI (U251 CNS) greater than 100 µM. The TGI (KM12 colon) was greater than 100 µM, the TGI (NCI/ADR-RES ovarian) was greater than 100 µM and the TGI (SR leukemia) was 73.8 µM. For the same compound, the TGI (HT29 colon) was greater than 100 µM, the TGI (SK-MEL-28 melanoma) was 75.7 µM and the TGI (NCI-H23 lung) was greater than 100 µM. For the same compound, the TGI (OVCAR-4 ovarian) was greater than 100 µM, the TGI (SF-539 CNS) was 54.8 µM and the TGI (SN12C renal) was greater than 100 µM. It also gave a TGI (HOP-62 NSCLC) greater than 100 µM, a TGI (ACHN renal) greater than 100 µM and a TGI (CAKI-1 renal) greater than 100 µM. The TGI (SF-268 CNS) was greater than 100 µM, the TGI (A549 NSCLC) was greater than 100 µM and the TGI (HCT-116 colon) was greater than 100 µM. For the same compound, the TGI (OVCAR-5 ovarian) was greater than 100 µM, the TGI (SK-OV-3 ovarian) was greater than 100 µM and the TGI (A498 renal) was 68.4 µM. It also gave a TGI (SNB-19 CNS) greater than 100 µM, a TGI (UACC-257 melanoma) of 49.6 µM and a TGI (OVCAR-8 ovarian) greater than 100 µM. The TGI (786-0 renal) was greater than 100 µM, the TGI (MALME-3M melanoma) was 82 µM and the TGI (TK-10 renal) was greater than 100 µM.
In the case of `CN(CCNC(=O)c1cn(C)c2c1ccc1ccccc12)CCNC(=O)c1cn(C)c2c1ccc1ccccc12`, the TGI (EKVX NSCLC) is reported as 6.93 µM, the TGI (SK-MEL-5 melanoma) is reported as greater than 100 µM and the TGI (SF-295 CNS) is reported as greater than 22.2 µM. For the same compound, the TGI (BT-549 breast) was 6.87 µM, the TGI (MDA-N) was 4.25 µM and the TGI (HCC-2998 colon) was 1.49 µM. The TGI (CCRF-CEM leukemia) was greater than 100 µM, the TGI (OVCAR-3 ovarian) was 11.4 µM and the TGI (PC-3 prostate) was 7.02 µM. It also gave a TGI (M14 melanoma) of 2.97 µM, a TGI (LOX IMVI melanoma) greater than 100 µM and a TGI (HOP-92 NSCLC) of 5.26 µM. For the same compound, the TGI (UO-31 renal) was 4.68 µM, the TGI (MDA-MB-231 breast) was 3.8 µM and the TGI (HS 578T breast) was 3.11 µM. The TGI (IGROV1 ovarian) was 4.65 µM, the TGI (SK-MEL-2 melanoma) was 4.6 µM and the TGI (SW-620 colon) was greater than 100 µM. It also gave a TGI (UACC-62 melanoma) of 12.7 µM, a TGI (NCI-H460 lung) of 3.72 µM and a TGI (NCI-H226 lung) greater than 75.1 µM. For the same compound, the TGI (U251 CNS) was 4.58 µM, the TGI (KM12 colon) was 2.98 µM and the TGI (NCI/ADR-RES ovarian) was greater than 100 µM. It also gave a TGI (HT29 colon) greater than 100 µM, a TGI (NCI-H23 lung) greater than 100 µM and a TGI (OVCAR-4 ovarian) of 16.2 µM. The TGI (SN12C renal) was 10.6 µM, the TGI (HOP-62 NSCLC) was 5.53 µM and the TGI (ACHN renal) was greater than 100 µM. The TGI (CAKI-1 renal) was greater than 100 µM, the TGI (SF-268 CNS) was greater than 21.3 µM and the TGI (A549 NSCLC) was 11.1 µM. It also gave a TGI (OVCAR-5 ovarian) of 3.52 µM, a TGI (SK-OV-3 ovarian) of 22.3 µM and a TGI (A498 renal) greater than 34.5 µM. The TGI (SNB-19 CNS) was greater than 100 µM, the TGI (UACC-257 melanoma) was 6.62 µM and the TGI (OVCAR-8 ovarian) was greater than 100 µM. It also gave a TGI (MALME-3M melanoma) of 5.13 µM.
